# Experimental data from article PMC8483441 (Journal of Medicinal Chemistry, 2021).
# Like-named read-outs stand apart in the source and are kept apart here. Square brackets hold non-standard residues; d marks the D form. Peptide text beside a SMILES is read from it. Orn = NCCC[C@H](N)C(=O)O
# Columns and labels:
# E. coli = assay type: cell-based, Escherichia coli; conditions: 24 h
# Protocol: (§1) Human serum was purchased from Sigma (St Louis, USA).
# (§2) Incubations were kept at 37 °C for 24 h. Results are the average of three independent studies.
# A. baumannii = assay type: cell-based, Acinetobacter baumannii; conditions: 24 h
# Protocol: as §1, §2
# Pseudomonas sp. [1] = assay: MIC, broth microdilution; assay type: cell-based; conditions: Pseudomonas sp. ATCC 15915; Mueller-Hinton medium, 5 × 10^5 CFU/mL, 37 °C, 24 h; average of three independent studies
# Protocol: as §1, §2
# S. enterica = assay type: cell-based, Salmonella enterica; conditions: 24 h
# Protocol: as §1, §2
# S. flexneri = conditions: 24 h
# From the text: Purified horse red blood cells were acquired from Thermo Fisher Scientific (Hampshire, England). Human serum was purchased from Sigma (St Louis, USA). E. coli was obtained from the Coli Genetic Stock Center (BW25113). S. flexneri (ATCC 29903), A. baumannii (ATCC 15308), Pseudomonas sp. (ATCC 15915), and S. enterica (ATCC 14028) were obtained from the CECT (Valencia, Spain). Clinical strains were supplied by the Vall d’Hebron Hospital (Barcelona, Spain). MRC5 fibroblasts were obtained from the Cytometry and Cell Culture Facility (SCAC, UAB) and originally purchased from ATCC.
# The antibiotic activity was defined by the minimum peptide concentration where the microorganism is unable to grow. The assay was done in polypropylene 96-well plates (Greiner, Frickenhausen, Germany) to avoid peptide binding to plate wells. Peptides were dissolved in water containing 0.4% w/v bovine serum albumin (BSA) and 0.02% v/v glacial acetic acid to prevent self-aggregation, following the reference protocol by Wiegand et al.,[42] based on the classical microtiter broth dilution recommended by the […]. Initial bacteria inoculum was adjusted to 5 × 10^5 CFU/mL in Mueller-Hinton (MH) medium. Incubations were kept at 37 °C for 24 h. Results are the average of three independent studies. MIC assays in the presence of serum were performed by incubating the peptide with human serum at a 1:1 ratio. Then, 10^6 cfu/mL of Pseudomonas sp. were incubated with serial dilutions of the peptides for 4 h. To determine the MBC, 50 μL from all wells were seeded into Petri plates and incubated for 24 h. The MBC concentration was attributed to the lowest concentration without detectable bacterial growth for each peptide.
# horse red blood cells = assay: Hemolytic activity; assay type: cell-based
# Protocol: The peptide toxicity was determined detecting the disruption of horse red blood cells, following a previous assay report.[35] 10-fold diluted cells in PBS were centrifuged three times at 800g to eliminate the hemoglobin from disrupted cells. After the last resuspension, erythrocytes were incubated with the peptides for 4 h at 37 °C. The detection was done measuring the supernatant absorbance in a VICTOR3 multilabel plate reader (Perkin Elmer, Waltham, Massachusetts) at 540 nm in a microplate reader. Percentage of hemolysis was calculated through a pattern done with dilutions of total cell lysis done with a 1% Triton X-100 buffer. Results are the average of three independent studies.
# [2] = Cytotoxicity in mammalian cells (MTT assay); assay type: cell-based; conditions: MRC-5 cytotoxicity (IC50)
# Protocol: (§3) MRC-5 cells were grown in Eagle’s minimum essential medium (MEMα), supplemented with 10% fetal bovine serum (FBS). 96-well plates were seeded with 3 × 10^4 cells/well and cultured overnight in order to get cells adhered into the plate and then incubated with two-fold peptide serial dilutions. After 4 h of incubation, the medium containing the peptides was replaced by MEMα supplemented with FBS and 3-(4,5-dimethylthiazol-2-yl)-2,5-diphenyltetrazolium bromide (MTT) at 0.4 mg/mL and incubated for 150 min. Detection of formazan crystals in the living cells was done by cell disruption by addition of 200 μL of dimethyl sulfoxide (DMSO) followed by absorbance measuring at 600 nm in a Tecan Infinite F Nano+ microplate reader (Tecan, Germany). Results are the average of three independent studies.
# MRC-5 cells = assay: Cytotoxicity in mammalian cells (MTT assay); assay type: cell-based
# Protocol: as §3
# Acinetobacter baumannii = assay type: cell-based; conditions: 24 h
# Protocol: as §2
# Escherichia coli = assay type: cell-based; conditions: 24 h
# Protocol: as §2
# Salmonella enterica = assay type: cell-based; conditions: 24 h
# Protocol: as §2
# Pseudomonas sp. [3] = assay: Minimum bactericidal concentration (MBC); assay type: cell-based; conditions: 50 μL from MIC wells seeded into Petri plates, 24 h; lowest concentration without detectable growth
# Protocol: as §2
# Pseudomonas sp. [4] = assay: MIC of peptides incubated with human serum; assay type: cell-based; conditions: peptide incubated with human serum 1:1; 10^6 cfu/mL Pseudomonas sp., 4 h
# Protocol: as §2
# Shigella flexneri = conditions: 50 μL from MIC wells seeded into Petri plates, 24 h; lowest concentration without detectable growth
# Protocol: The antibiotic activity was defined by the minimum peptide concentration where the microorganism is unable to grow. The assay was done in polypropylene 96-well plates (Greiner, Frickenhausen, Germany) to avoid peptide binding to plate wells. Peptides were dissolved in water containing 0.4% w/v bovine serum albumin (BSA) and 0.02% v/v glacial acetic acid to prevent self-aggregation, following the reference protocol by Wiegand et al.,[42] based on the classical microtiter broth dilution recommended by the National Committee of Laboratory Safety and Standards (NCLSS). Initial bacteria inoculum was adjusted to 5 × 10^5 CFU/mL in Mueller-Hinton (MH) medium. Incubations were kept at 37 °C for 24 h. Results are the average of three independent studies. […] To determine the MBC, 50 μL from all wells were seeded into Petri plates and incubated for 24 h. The MBC concentration was attributed to the lowest concentration without detectable bacterial growth for each peptide.
# A. baumannii 3862 = assay: MIC, clinical bacterial strain; assay type: cell-based
# Protocol: as §1, §2
# A. baumannii 3878 = assay: MIC, clinical bacterial strain; assay type: cell-based
# Protocol: as §1, §2
# A. baumannii 3879 = assay: MIC, clinical bacterial strain; assay type: cell-based
# Protocol: as §1, §2
# A. baumannii 3880 = assay: MIC, clinical bacterial strain; assay type: cell-based
# Protocol: as §1, §2
# E. coli 116878 = assay: MIC, clinical bacterial strain; assay type: cell-based
# Protocol: as §1, §2
# E. coli cf073 = assay: MIC, clinical bacterial strain; assay type: cell-based
# Protocol: as §1, §2
# P. aeruginosa 827632 = assay: MIC, clinical bacterial strain; assay type: cell-based
# Protocol: as §1, §2
# P. aeruginosa 827651 = assay: MIC, clinical bacterial strain; assay type: cell-based
# Protocol: as §1, §2
# S. typhimurium 324 = assay: MIC, clinical bacterial strain; assay type: cell-based
# Protocol: as §1, §2
# S. typhimurium 365 = assay: MIC, clinical bacterial strain; assay type: cell-based
# Protocol: as §1, §2
Compound,MIC E. coli (E. coli) [µM],MIC A. baumannii (A. baumannii) [µM],MIC Pseudomonas sp. (Pseudomonas sp. [1]) [µM],MIC S. enterica (S. enterica) [µM],MIC S. flexneri (S. flexneri) [µM],"hemolysis % (250 μM peptide) (horse red blood cells; red cells of horse, 4 h, 250) [%]",IC50 [2] [µM],MBC Acinetobacter baumannii (Acinetobacter baumannii) [µM],MBC Escherichia coli (Escherichia coli) [µM],MBC Salmonella enterica (Salmonella enterica) [µM],MBC Pseudomonas sp. (Pseudomonas sp. [3]) [µM],MBC Shigella flexneri (Shigella flexneri) [µM],further results
CC[C@H](C)[C@H](NC(=O)[C@H](C)NC(=O)[C@H](CCCN)NC(=O)[C@H](CCSC)NC(=O)[C@H](C)NC(=O)[C@@H](NC(=O)[C@@H](NC(=O)[C@H](CCCN)NC(=O)[C@@H]1CCCN1C(=O)[C@H](CO)NC(=O)[C@@H](NC(=O)[C@H](Cc1c[nH]cn1)NC(=O)[C@H](CCC(N)=O)NC(=O)[C@@H](NC(=O)[C@H](C)NC(=O)[C@H](Cc1ccccc1)NC(=O)[C@H](Cc1c[nH]c2ccccc12)NC(=O)[C@H](CCC(N)=O)NC(=O)[C@H](C)NC(=O)[C@H](CCCN)NC(=O)[C@@H](NC(=O)[C@H](Cc1ccccc1)NC(=O)[C@@H]1CCCN1C(=O)[C@@H](N)CCCN)[C@@H](C)O)[C@@H](C)CC)[C@@H](C)CC)[C@@H](C)O)[C@@H](C)CC)C(=O)N[C@@H](CC(N)=O)C(=O)N[C@@H](CC(N)=O)C(=O)N[C@@H](Cc1ccc(O)cc1)C(=O)N[C@@H](CCCN)C(=O)N[C@@H](Cc1c[nH]c2ccccc12)C(=O)N[C@@H](CCCN)C(N)=O [peptide 2] (H-[Orn]PFT[Orn]AQWFAIQHISP[Orn]TIAM[Orn]AINNY[Orn]W[Orn]-NH2),6.25,6.25,6.25,25,12.5,10 ± 2,≤ 180,6.25,6.25,25,6.25,12.5,"hemolysis % (250 μM peptide) (horse red blood cells): 10%; IC50 (MRC-5 cells; 4 h): 113 ± 8 µM; MIC in Pseudomonas sp., peptides incubated with human serum (Pseudomonas sp. [4]): 50 µM"
CC[C@H](C)[C@H](NC(=O)[C@H](C)NC(=O)[C@H](CCCN)NC(=O)[C@H](CCSC)NC(=O)[C@H](C)NC(=O)[C@@H](NC(=O)[C@@H](NC(=O)[C@H](CCCN)NC(=O)[C@@H]1CCCN1C(=O)[C@H](CO)NC(=O)[C@@H](NC(=O)[C@H](Cc1c[nH]cn1)NC(=O)[C@H](CCC(N)=O)NC(=O)[C@@H](NC(=O)[C@H](C)NC(=O)[C@H](Cc1ccccc1)NC(=O)[C@H](Cc1c[nH]c2ccccc12)NC(=O)[C@H](CCC(N)=O)NC(=O)[C@H](C)NC(=O)[C@H](CCCN)NC(=O)[C@@H](NC(=O)[C@@H](N)Cc1ccccc1)[C@@H](C)O)[C@@H](C)CC)[C@@H](C)CC)[C@@H](C)O)[C@@H](C)CC)C(=O)N[C@@H](CC(N)=O)C(=O)N[C@@H](CC(N)=O)C(=O)N[C@@H](Cc1ccc(O)cc1)C(=O)N[C@@H](CCCN)C(=O)N[C@@H](Cc1c[nH]c2ccccc12)C(=O)N[C@@H](CCCN)C(N)=O [peptide 5] (H-FT[Orn]AQWFAIQHISP[Orn]TIAM[Orn]AINNY[Orn]W[Orn]-NH2),25,>100,25,>100,50,11 ± 4,> 300,> 100,25,> 100,25,50,MRC-5 cytotoxicity (IC50) (MRC-5 cells): No toxicity was detected
CC[C@H](C)[C@H](NC(=O)[C@H](C)NC(=O)[C@H](CCCN)NC(=O)[C@H](CCSC)NC(=O)[C@H](C)NC(=O)[C@@H](NC(=O)[C@@H](NC(=O)[C@H](CCCN)NC(=O)[C@@H]1CCCN1C(=O)[C@H](CO)NC(=O)[C@@H](NC(=O)[C@H](Cc1c[nH]cn1)NC(=O)[C@H](CCC(N)=O)NC(=O)[C@@H](NC(=O)[C@H](C)NC(=O)[C@H](Cc1ccccc1)NC(=O)[C@H](Cc1c[nH]c2ccccc12)NC(=O)[C@H](CCC(N)=O)NC(=O)[C@H](C)NC(=O)[C@H](CCCN)NC(=O)[C@@H](NC(=O)[C@H](Cc1ccccc1)NC(=O)[C@H]1CCCN1C(=O)[C@@H](N)CCCN)[C@@H](C)O)[C@@H](C)CC)[C@@H](C)CC)[C@@H](C)O)[C@@H](C)CC)C(=O)N[C@@H](CC(N)=O)C(=O)N[C@@H](CC(N)=O)C(=O)N[C@@H](Cc1ccc(O)cc1)C(=O)N[C@@H](CCCN)C(=O)N[C@@H](Cc1c[nH]c2ccccc12)C(=O)N[C@@H](CCCN)C(N)=O [peptide 6] (H-[Orn][dP]FT[Orn]AQWFAIQHISP[Orn]TIAM[Orn]AINNY[Orn]W[Orn]-NH2),3.13,12.5,1.56,50,50,1.1 ± 0.9,230 ± 40,12.5,3.13,50,1.56,50,MIC A. baumannii 3862 (A. baumannii 3862): 1.56 µM; MIC A. baumannii 3878 (A. baumannii 3878): 0.78 µM; MIC A. baumannii 3879 (A. baumannii 3879): 3.13 µM; MIC A. baumannii 3880 (A. baumannii 3880): 12.5 µM; MIC E. coli 116878 (E. coli 116878): 25 µM; MIC E. coli cf073 (E. coli cf073): 6.25 µM; MIC P. aeruginosa 827632 (P. aeruginosa 827632): >100 µM; MIC P. aeruginosa 827651 (P. aeruginosa 827651): 25 µM; MIC S. typhimurium 324 (S. typhimurium 324): 25 µM; MIC S. typhimurium 365 (S. typhimurium 365): 25 µM
